# Experiments:
# [1] = system: rat glioma (C6) tumor xenograft; experiment: Rat C6 glioblastoma subcutaneous tumor xenograft antitumor efficacy study; type: in vivo, female athymic (nu/nu) nude mice; settings: for %TGI: analyzed at Day 18, P < 0.0001
# Experimental: The rat C6 glioblastoma antitumor efficacy study was performed at INSERM U318 (Grenoble, France). The rat C6 glioblastoma subcutaneous tumor model is based on the use of a rat C6 cell line obtained from a rat glial tumor induced by N-nitrosomethylurea (Benda et al. (1968), Science, vol 161, 370-371). These animal studies were done according to ethical guidelines of animal experimentation (Charte du comité d'éthique du CNRS, 2003) and the English "Guidelines for the welfare of animals in experimental neoplasia (Second Edition)" from the United Kingdom Coordinating Committee on Cancer Research (UKCCCR) (Workman et al. (1998), Br. J. Cancer, vol 77, no 1, 1-10). On each dosing day, Formula I stock solutions (24 and 40 mg/mL in 20% ethanol, 20% PEG-400 and 60% Tween 80) were diluted with sterile 5% dextrose in water (D5W) to prepare dosing solutions of 6 mg/mL and 10 mg/mL of Formula I in a vehicle consisting of 5% ethanol, 5% PEG-400, 15% Tween-80, and 75% D5W.
# For the rat glioma antitumor efficacy study, female athymic (nu/nu) nude mice (6-7 weeks of age) were inoculated SC with 5 x 10^6 C6 cells (day 0). Tumor bearing animals were randomized (10 per group) when tumors were palpable (day 6). Group 1 (control group) received drug-free vehicle (5% ethanol, 5% PEG-400, 15% Tween-80, and 75% D5W) IP (5 mL/kg), once daily on days 6-18 (q1d x 13). Group 2 received Formula I (6 mg/mL) IP at 20 mg/kg, once daily on days 6 to 13 and then at 10 mg/kg once daily on days 14 to 18. Group 3 received Formula I (6 mg/mL) SC at 30 mg/kg, once daily on days 6 to 13 and then at 15 mg/kg once daily on days 14 to 18. Group 4 received Formula I (10 mg/mL) IV at 100 mg/kg q1d x 5 for 2 weeks. Each animal was euthanized when its tumor reached the predetermined endpoint size (∼2,500 mm^3) or at the end of the study (D18). Treatment period was over 13 days, from day 6 to day 18, post tumor cell inoculation. Tumor growth inhibition (TGI) was calculated on day 16 post tumor cell inoculation, at which time some animals from the vehicle control group had to be sacrificed due to tumor burden.
# (§1) In this model and the models of Examples 3, 6 and 7, tumor growth was followed every other day by measuring tumor length (L) and width (W) using a calliper. Measurements were converted to tumor volumes (TV; mm^3) using the standard formula, TV = (L xW^2)/2. Tumor volume at day n was expressed as relative tumor volume (RTV) according to the following formula RTV = TVn / TV0, where TVn is the tumor volume at day n and TV0 is the tumor volume at day 0. The percentage of tumor growth inhibition (%TGI) was determined by 1 ― (mean RTV of treated group/ mean RTV of control group) x 100. […] Statistical analysis was calculated by the two-tailed unpaired t test using the Prism software. Animals were weighed at least twice weekly during and after treatment until completion of the study. The mice were examined frequently for overt signs of any adverse drug-related side effects.
# When the time to endpoint (TTE) for each mouse was also calculated by the following equation: TTE = (log10(endpoint volume)−b)/(m) [formula] Where TTE is expressed in days, endpoint volume is in mm^3, b is the intercept, and m is the slope of the line obtained by linear regression of a log-transformed tumor data set. This value was used to determined % tumor growth delay (%TGD), defined as the increase in median TTE for a treatment group compared to the control group expressed in days, or as a percentage of the median TTE of the control group.
# [2] = system: human glioma (U-87MG) tumor xenograft; experiment: Human U-87MG glioblastoma xenograft antitumor efficacy study; type: in vivo, female athymic (nu/nu) nude mice; settings: SC bolus 30 mg/kg q1d x 5 over 2 weeks
# Text: as §1
# The human U-87 MG (ATCC® no. HTB-14™) glioblastoma antitumor efficacy study was performed at INSERM U318 (Grenoble, France). […]
# For the human glioblastoma antitumor efficacy study, female athymic (nu/nu) nude mice (6-7 weeks of age) were inoculated SC with 5 x 10^6 U-87MG cells (day 0). […] Tumor growth inhibition (TGI) was calculated on day 34 post tumor cell inoculation, at which time some animals from the vehicle control group had to be sacrificed due to tumor burden.
# [3] = Toxicity of 14-day continuous intravenous infusion in monkeys; type: in vivo
# Experimental: Cynomolgus monkeys received continuous IV infusion over 14 days of Formula I at 5 mg/kg/day, 15 mg/kg/day, or 30 mg/kg/day. The drug was infused intravenously (24 hours/day) into the femoral vein at a dose rate of 2 ml/kg/hour for 14 consecutive days. Blood samples were removed from each monkey on Days 1, 2, 6, 10, and 15 of the treatment period. Monkeys were bled by venipuncture and samples were collected into tubes containing K2EDTA. On Day 1, samples were collected at 2, 6, and 12 hours after initiation of treatment. Additional samples were collected at 30 hours after the start of infusion (Day 2). On Days 6 and 10, samples were collected at approximately 6 hours after the bag changes. At the end of the 14 days of infusion, on Day 15, samples were collected at 1 hour prior to cessation of dose administration, and at 5 min, 30 min, 1 h, 2 h, 4 h, 8 h, and 24 h following cessation of dose administration.
compound,measurement,setting,value
"CC(C)=CCC/C(C)=C/CC/C(C)=C/CN1C(=O)c2cccc(O)c2Nc2c(O)cc(O)cc21 [Formula I, 10-farnesyl-4,6,8-trihydroxy-dibenzodiazepin-11-one]",Maximum body weight loss,"[1]; IP 20 mg/kg (Q1D x 8) followed by 10 mg/kg (Q1D x 7), Day 13",15%
same,difference in tumor volume relative to the vehicle control,[1]; IV bolus 100 mg/kg (Q1D x 5) over 2 weeks,No significant difference
same,body weight loss,"[1]; IV group, 100 mg/kg q1d x 5 for 2 weeks",No significant body weight loss
same,Maximum body weight loss,[1]; SC 30 mg/kg (Q1D x 8) followed by 15 mg/kg (Q1D x 7),11%
same,%TGI,[1]; daily bolus IP 20 then 10 mg/kg,66%
same,%TGI,[1]; daily bolus SC 30 then 15 mg/kg,60%
same,body weight loss,[2],no significant body weight loss
same,%TGI,"[2]; day 34, P = 0.05",36%
same,compound associated toxicity,[3],no severe compound associated toxicity was observed
same,"degenerative changes in any organs, including the infusion site",[3],No degenerative changes
same,"effect on body weight, ocular condition, electrocardiographic activity and other parameters assessed",[3],no effect
same,"histological observations, reflected clearance of the vehicle used",[3],Diffuse vacuolization of hepatocytes and accumulation of foamy histiocytes (macrophages) in the spleen
same,side effects (reversible),[3],inappetance and a moderate degree of regenerative anemia

# Source: patent publication EP1733758A1, “Methods for administration of a farnesyl dibenzodiazepinone” (Ecopia Biosciences Inc., priority 2005, dated 2006)
